Read-outs that look alike come from different tables or passages of the source.
Key:
[1] = target: T1, baculovirus-expressed ALK (Homo sapiens, UniProt Q9UM73); test: ALK Kinase Assay (ELISA-type, time-resolved fluorescence); assay type: biochemical
T1 construct: host or cells: baculovirus expression system
Outline: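 Wells were coated with phospholipase C-γ at 10 μg/mL in Tris-buffered saline. Adding 30 ng/ml enzyme started the reaction, which ran at 37° C for 15 minutes before Eu-N1 PT66 antibody detection. Percent inhibition versus log10 concentration gave IC50 by variable-slope fit.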

[2] = target: T2, c-Met (cytoplasmic domain) (Homo sapiens, UniProt P08581); test: c-Met Kinase Assay (same methods as for ALK, with modifications); assay type: biochemical
T2 construct: 10 ng/mL c-Met (cytoplasmic domain, Invitrogen Corporation #PV3143); purchased Invitrogen Corporation PV3143
T2 sequence (P08581 956-1390 limits assumed): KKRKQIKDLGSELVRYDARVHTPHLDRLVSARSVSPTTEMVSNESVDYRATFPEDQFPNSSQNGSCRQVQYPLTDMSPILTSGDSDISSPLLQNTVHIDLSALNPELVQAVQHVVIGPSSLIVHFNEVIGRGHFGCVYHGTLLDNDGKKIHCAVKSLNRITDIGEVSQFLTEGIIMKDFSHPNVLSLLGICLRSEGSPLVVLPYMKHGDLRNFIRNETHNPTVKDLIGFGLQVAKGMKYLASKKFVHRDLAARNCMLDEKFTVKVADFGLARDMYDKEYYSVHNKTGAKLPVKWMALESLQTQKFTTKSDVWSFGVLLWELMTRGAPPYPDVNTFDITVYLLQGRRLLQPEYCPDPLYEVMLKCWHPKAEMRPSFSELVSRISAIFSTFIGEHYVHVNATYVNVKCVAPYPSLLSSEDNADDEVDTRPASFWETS
Outline: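 IC50 values were fitted by variable-slope sigmoidal regression of percent inhibition against log compound concentration. Phosphorylation was read with Eu-N1 PT66 antibody after a 15 min, 37 °C reaction. The reaction was initiated with 10 ng/mL c-Met cytoplasmic domain on wells coated with 10 μg/mL PLC-γ in TBS.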

[3] = ALK kinase inhibition, 1 μM ATP (Km level), read-out: ALK Activity
[4] = c-Met kinase inhibition, 1 μM ATP (Km level), read-out: cMet Activity
[5] = 1 μM ATP (Km level), 30 ng/ml ALK, 37° C., 15 minutes, read-out: ALK Activity (ALK kinase inhibition, IC50 class)
[6] = 1 μM ATP (Km level), 10 ng/mL c-Met, read-out: cMet Activity (c-Met kinase inhibition, IC50 class)
[7] = 1 μM ATP (Km level), read-out: ALK Activity (ALK Kinase Inhibition, IC50)
[8] = 1 μM ATP (Km level), read-out: cMet Activity (c-Met Kinase Inhibition, IC50)
[9] = ALK kinase inhibition, 1 μM ATP, read-out: ALK Activity
[10] = c-Met kinase inhibition, 1 μM ATP, read-out: cMet Activity

T1 sequence (Q9UM73 19-1620): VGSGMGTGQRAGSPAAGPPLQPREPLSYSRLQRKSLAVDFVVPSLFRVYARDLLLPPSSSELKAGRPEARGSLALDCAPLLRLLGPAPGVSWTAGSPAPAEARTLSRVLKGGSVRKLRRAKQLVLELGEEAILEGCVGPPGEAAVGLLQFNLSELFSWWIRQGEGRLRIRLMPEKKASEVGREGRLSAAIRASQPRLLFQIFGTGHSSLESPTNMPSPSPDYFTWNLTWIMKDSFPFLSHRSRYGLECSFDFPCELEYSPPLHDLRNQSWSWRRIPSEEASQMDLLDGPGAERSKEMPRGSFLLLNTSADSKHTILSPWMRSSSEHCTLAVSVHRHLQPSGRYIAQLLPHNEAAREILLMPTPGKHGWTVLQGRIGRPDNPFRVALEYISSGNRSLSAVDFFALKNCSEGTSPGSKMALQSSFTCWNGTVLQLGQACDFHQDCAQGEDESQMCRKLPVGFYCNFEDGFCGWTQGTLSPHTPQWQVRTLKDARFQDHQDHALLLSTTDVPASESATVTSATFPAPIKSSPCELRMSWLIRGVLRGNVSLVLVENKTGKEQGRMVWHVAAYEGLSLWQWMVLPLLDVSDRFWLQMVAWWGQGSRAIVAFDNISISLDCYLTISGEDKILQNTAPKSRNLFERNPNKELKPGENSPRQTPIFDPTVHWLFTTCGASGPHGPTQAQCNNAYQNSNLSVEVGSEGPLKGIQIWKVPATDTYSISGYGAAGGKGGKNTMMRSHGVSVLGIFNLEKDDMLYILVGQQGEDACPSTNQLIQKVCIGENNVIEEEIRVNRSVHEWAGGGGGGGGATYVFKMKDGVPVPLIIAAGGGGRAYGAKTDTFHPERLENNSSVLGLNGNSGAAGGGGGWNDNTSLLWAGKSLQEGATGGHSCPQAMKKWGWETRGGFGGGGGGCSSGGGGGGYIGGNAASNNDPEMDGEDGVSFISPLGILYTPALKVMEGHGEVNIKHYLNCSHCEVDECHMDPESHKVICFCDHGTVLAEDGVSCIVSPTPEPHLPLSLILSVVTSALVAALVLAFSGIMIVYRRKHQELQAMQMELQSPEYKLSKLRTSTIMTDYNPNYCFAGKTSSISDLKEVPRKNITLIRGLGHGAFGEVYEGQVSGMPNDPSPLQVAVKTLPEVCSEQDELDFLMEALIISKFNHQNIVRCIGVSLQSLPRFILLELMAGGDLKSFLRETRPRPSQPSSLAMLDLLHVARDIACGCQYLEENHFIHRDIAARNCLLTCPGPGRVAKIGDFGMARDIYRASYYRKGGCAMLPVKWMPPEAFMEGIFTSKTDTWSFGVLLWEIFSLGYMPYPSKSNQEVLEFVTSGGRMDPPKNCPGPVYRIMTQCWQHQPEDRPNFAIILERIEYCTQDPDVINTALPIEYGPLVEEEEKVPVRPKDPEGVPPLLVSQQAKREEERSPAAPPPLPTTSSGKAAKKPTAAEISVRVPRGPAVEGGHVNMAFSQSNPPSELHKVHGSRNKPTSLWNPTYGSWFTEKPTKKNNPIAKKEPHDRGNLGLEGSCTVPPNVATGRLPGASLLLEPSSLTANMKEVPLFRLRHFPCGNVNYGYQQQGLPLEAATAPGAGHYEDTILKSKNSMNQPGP

Molecule	IC50 [1, 3] [nM]	IC50 [2, 4] [nM]	IC50 [1, 7] [nM]	IC50 [2, 8] [nM]	further results
COCCNC1CCc2cc(Nc3ncc(Cl)c(Nc4ccccc4S(=O)(=O)N4CCC(O)C4)n3)c(OC)cc2CC1 (centres unmarked) [Example 1082, 1-(2-{5-Chloro-2-[3-methoxy-7-(2-methoxy-ethylamino)-6,7,8,9-tetrahydro-5H-benzocyclohepten-2-ylamino]-pyrimidin-4-ylamino}-benzenesulfonyl)-pyrrolidin-3-ol]	–	–	–	–	IC50 [1, 5]: < 100 nM; IC50 [2, 6]: 1000 to 10000 nM
CCN1C(=O)CCCc2c1ccc(Nc1ncc(Cl)c(N[C@@H]3CCCC[C@H]3NS(C)(=O)=O)n1)c2OC [Example 120, N-{(1R,2R)-2-[5-Chloro-2-(1-ethyl-6-methoxy-2-oxo-2,3,4,5-tetrahydro-1H-benzo[b]azepin-7-ylamino)-pyrimidin-4-ylamino]-cyclohexyl}-methanesulfonamide]	< 100	> 10000	–	–	–
COCCN1CCc2ccc(Nc3ncc(Cl)c(Nc4ccc(N(C)C)cc4S(=O)(=O)N(C)C)n3)cc2CC1 [Example 852, 2-{5-Chloro-2-[3-(2-methoxy-ethyl)-2,3,4,5-tetrahydro-1H-benzo[d]azepin-7-ylamino]-pyrimidin-4-ylamino}-5-dimethylamino-N,N-dimethyl-benzenesulfonamide]	–	–	< 100	1000 to 10000	–
CN1C(=O)OCCc2cc(Nc3ncc(Cl)c(Nc4c(F)cccc4OCCO)n3)ccc21 [Example 1732, 2-{5-Chloro-4-[2-fluoro-6-(2-hydroxy-ethoxy)-phenylamino]-pyrimidin-2-ylamino}-5-methyl-8,9-dihydro-5H-7-oxa-5-aza-benzocyclohepten-6-one]	–	–	–	–	IC50 [1, 9]: < 100 nM; IC50 [2, 10]: < 100 nM
CNC(=O)c1cccc(F)c1Nc1nc(Nc2ccc3c(c2)N(C(=O)CN(C)C)CCCC3(C)C)ncc1Cl [Example 1630, 2-{5-Chloro-2-[1-(2-dimethylamino-acetyl)-5,5-dimethyl-2,3,4,5-tetrahydro-1H-benzo[b]azepin-8-ylamino]-pyrimidin-4-ylamino}-3-fluoro-N-methyl-benzamide]	–	–	–	–	IC50 [1, 9]: 100 to 1000 nM; IC50 [2, 10]: 100 to 1000 nM
Cc1cccc(C(N)=O)c1Nc1nc(Nc2ccc3c(c2)N(C(C)C)C(=O)CCC3)ncc1Cl [Example 1475, 2-[5-Chloro-2-(1-isopropyl-2-oxo-2,3,4,5-tetrahydro-1H-benzo[b]azepin-8-ylamino)-pyrimidin-4-ylamino]-3-methyl-benzamide]	–	–	–	–	IC50 [1, 9]: 100 to 1000 nM; IC50 [2, 10]: > 10000 nM
C#CCN1CC2CCC(C1)c1cc(Nc3ncc(Cl)c(Nc4ccccc4S(=O)(=O)NC)n3)ccc12 (centres unmarked) [Example 287, 2-[5-Chloro-2-(10-prop-2-ynyl-10-aza-tricyclo[6.3.2.0*2,7*]trideca-2,4,6-trien-4-ylamino)-pyrimidin-4-ylamino]-N-methyl-benzenesulfonamide]	< 100	100 to 1000	–	–	–
COc1cc2c(cc1Nc1ncc(Cl)c(Nc3ccccc3OC)n1)CCOC(=O)N2C [Example 1508, 2-[5-Chloro-4-(2-methoxy-phenylamino)-pyrimidin-2-ylamino]-3-methoxy-5-methyl-8,9-dihydro-5H-7-oxa-5-aza-benzocyclohepten-6-one]	–	–	–	–	IC50 [1, 9]: < 100 nM; IC50 [2, 10]: > 10000 nM
COc1cccnc1-c1ccccc1Nc1nc(Nc2ccc3c(c2)C(C)(C)CCC(=O)N3)ncc1Cl [Example 989, 7-{5-Chloro-4-[2-(3-methoxy-pyridin-2-yl)-phenylamino]-pyrimidin-2-ylamino}-5,5-dimethyl-1,3,4,5-tetrahydro-benzo[b]azepin-2-one]	–	–	< 100	100 to 1000	–
COCCN1CCc2cc(Nc3ncc(Cl)c(Nc4ccccc4S(=O)(=O)N4CC[C@H](C)C4)n3)c(OC)cc2CC1 [Example 854, 5-Chloro-N(2)-[8-methoxy-3-(2-methoxy-ethyl)-2,3,4,5-tetrahydro-1H-benzo[d]azepin-7-yl]-N(4)-[2-((S)-3-methyl-pyrrolidine-1-sulfonyl)-phenyl]-pyrimidine-2,4-diamine]	–	–	< 100	100 to 1000	–
CC1(C)CCC(=O)Nc2cc(Nc3ncc(Cl)c(Nc4c(F)cccc4C(=O)NCC#N)n3)ccc21 [Example 1080, 2-[5-Chloro-2-(5,5-dimethyl-2-oxo-2,3,4,5-tetrahydro-1H-benzo[b]azepin-8-ylamino)-pyrimidin-4-ylamino]-N-cyanomethyl-3-fluoro-benzamide]	–	–	–	–	IC50 [1, 5]: < 100 nM; IC50 [2, 6]: < 100 nM
5-Chloro-N*2*-[7-(2,2-difluoro-ethylamino)-1-methoxy-6,7,8,9-tetrahydro-5H-benzocyclohepten-2-yl]-N*4*-methyl-N*4*-[2-(propane-2-sulfonyl)-phenyl]-pyrimidine-2,4-diamine [Example 678]	–	–	< 100	> 10000	–
CNC(=O)c1ccccc1Nc1nc(Nc2ccc3c(c2)C2CCC3CN(CCOC)C2)ncc1Cl (centres unmarked) [Example 282, 2-{5-Chloro-2-[10-(2-methoxy-ethyl)-10-aza-tricyclo[6.3.2.0*2,7*]trideca-2,4,6-trien-4-ylamino]-pyrimidin-4-ylamino}-N-methyl-benzamide]	< 100	< 100	–	–	–
CN(CCC#N)c1cccc(F)c1Nc1nc(Nc2ccc3c(c2)NC(=O)CCC3(C)C)ncc1Cl [Example 1263, 3-({2-[5-Chloro-2-(5,5-dimethyl-2-oxo-2,3,4,5-tetrahydro-1H-1-benzazepin-8-ylamino)-pyrimidin-4-ylamino]-3-fluoro-phenyl}-methyl-amino)-propionitrile]	–	–	–	–	IC50 [1, 5]: 100 to 1000 nM; IC50 [2, 6]: 1000 to 10000 nM
CN1CCN(C)c2cccc(Nc3ncc(Cl)c(N[C@@H]4CCCC[C@H]4NS(C)(=O)=O)n3)c2C1=O [Example 214, N-{(1R,2R)-2-[5-Chloro-2-(1,4-dimethyl-5-oxo-2,3,4,5-tetrahydro-1H-benzo[e][1,4]diazepin-6-ylamino)-pyrimidin-4-ylamino]-cyclohexyl}-methanesulfonamide]	100 to 1000	1000 to 10000	–	–	–

More lines, main results first:

IC50 [1, 3] [nM]	IC50 [2, 4] [nM]	IC50 [1, 7] [nM]	IC50 [2, 8] [nM]	Molecule	further results
< 100	1000 to 10000	–	–	CNC(=O)c1ccccc1Nc1nc(Nc2ccc3c(c2OC)CCCC(=O)N3CCOC)ncc1Cl [Example 126, 2-{5-Chloro-2-[6-methoxy-1-(2-methoxy-ethyl)-2-oxo-2,3,4,5-tetrahydro-1H-benzo[b]azepin-7-ylamino]-pyrimidin-4-ylamino}-N-methyl-benzamide]	–
–	–	< 100	1000 to 10000	CCN1CCN(CC)c2cc(Nc3ncc(Cl)c(Nc4ccccc4C(=O)OCCOC)n3)ccc2C1 [Example 713, 2-[5-Chloro-2-(1,4-diethyl-2,3,4,5-tetrahydro-1H-benzo[e][1,4]diazepin-8-ylamino)-pyrimidin-4-ylamino]-benzoic acid 2-methoxy-ethyl ester]	–
< 100	> 10000	–	–	CCN1CCc2cc(Nc3ncc(Cl)c(NC4C5C=CC(C5)C4C(N)=O)n3)c(OC)cc2CC1=O (stereo not drawn) [Example 252, (2-exo,3-exo)-3-[5-Chloro-2-(3-ethyl-8-methoxy-2-oxo-2,3,4,5-tetrahydro-1H-benzo[d]azepin-7-ylamino)-pyrimidin-4-ylamino]-bicyclo[2.2.1]hept-5-ene-2-carboxylic acid amide]	–
–	–	< 100	> 10000	COc1cc2c(cc1Nc1ncc(Cl)c(Nc3ccccc3-c3nccn3C)n1)CCN(CC(=O)N(C)C)CC2 [Example 999, 2-(7-{5-Chloro-4-[2-(1-methyl-1H-imidazol-2-yl)-phenylamino]-pyrimidin-2-ylamino}-8-methoxy-1,2,4,5-tetrahydro-benzo[d]azepin-3-yl)-N,N-dimethyl-acetamide]	–
